In EP0739882B1, “Novel aconitine compounds and analgesic/anti-inflammatory agent containing the same” (SANWA SHOYAKU KABUSHIKI KAISHA, priority 1991, dated 1993):

Legend:
[1] = Acute toxicity (LD50, s.c.); design: species or system mice; conditions: mouse, in vivo, sc, mortality during 72 hours, Litchfield-Wilcoxon, read-out: LD50 value, mg/kg (95 % confidence limits)
Description: Experiment example 3 (Acute toxicity)
Male mice of the Std:ddY Strain (20 - 25g) were used. The LD50 values were calculated using the method of Litchfield-Wilcoxon from the mortality during 72 hours after test compound was administered s.c. The results are shown in Table 3.

[2] = test system: Male mice of the Std:ddY Strain; assay: Analgesic activity by the acetic acid-induced writhing method; assay type: in vivo; conditions: Mus musculus; test compound s.c. 30 minutes before 0.7 % acetic acid i.p.; writhing counted for 10 minutes; Litchfield-Wilcoxon; 95 % confidence limits in brackets
Description: Experiment example 1 (Analgesic action)
Measurement of analgesic activity by the acetic acid-induced writhing method.
Male mice of the Std:ddY Strain (20 - 25g) were used. All mice were maintained at room temperature of 24 - 25 °C on a 12 hours light and dark cycle and were given food and water ad libitum. Test compound was used in 3 % suspension in gum arabic, 0.7 % acetic acid in 0.9 % physiological saline solution was injected i.p. (10ml / kg) at 30 minutes after test compound was administered s.c. After 10 minutes, the number of writhing movements was counted for a period of 10 minutes. 3 % gum arabic solution in 0.9 % physiological saline solution was used as a negative control. The ED50 values were calculated in accordance with the Litchfield-Wilcoxon's method based on judging to be positive in case of half and under the writhing number of negative control group.

[3] = Property and solubility (qualitative solubility in solvents); assay type: physicochemical; conditions: for Solubility: solvents in which insoluble: hexane and water

Row | Compound | LD50 at 72 h [1] | ED50 [2] | Solubility: solvents in which soluble [3] | Solubility: solvents in which insoluble [3]
1 | CCN1CC2(COC)CCC(OC)C34C5CC6C(OC)C(=O)C(C5C6OC(=O)c5cccc(Cl)c5)C(C(OC)C23)C14 (stereo not drawn) [3,13-dideoxy-14-O-m-chlorobenzoyl-16-epi-pyroaconine] | > 20 mg/kg | 11 mg/kg | Soluble in ether, chloroform, benzene, ethanol, methanol, ethylacetate, pyridine and dimethyl sulfoxide | Insoluble in hexane and water
2 | 14-O-m-chlorobenzoylaconine |  |  | Soluble in ether, chloroform, benzene, ethanol, methanol, ethylacetate, pyridine and dimethyl sulfoxide | Insoluble in hexane and water
3 | 3,13-dideoxy-14-O-m-chlorobenzoylaconine |  |  | Soluble in ether, chloroform, benzene, ethanol, methanol, ethylacetate, pyridine and dimethyl sulfoxide | Insoluble in hexane and water
4 | CCN1CC2(COC)C(O)CC(OC)C34C5CC6(O)C(OC)C(O)C(O)(C5C6OC(=O)c5ccc(F)cc5)C(C(OC)C23)C14 (stereo not shown) [14-O-p-fluorobenzoylaconine] | > 30 mg/kg | 8.26 mg/kg | Soluble in ether, chloroform, benzene, ethanol, methanol, acetone, ethylacetate, pyridine and dimethyl sulfoxide | Insoluble in hexane and water
5 | 3,8-dideoxy-14-O-m-chlorobenzoylaconine |  |  | Soluble in ether, chloroform, benzene, ethanol, methanol, ethylacetate, pyridine and dimethyl sulfoxide | Insoluble in hexane and water
6 | 3-deoxy-14-O-m-chlorobenzoylaconine |  |  | Soluble in ether, chloroform, benzene, ethanol, methanol, ethylacetate, pyridine and dimethyl sulfoxide | Insoluble in hexane and water
7 | CCN1CC2(COC)C(O)CC(OC)C34C5CC6(O)C(OC)C(O)C(O)(C5C6OC(=O)c5ccc(Br)cc5)C(C(OC)C23)C14 (stereo not shown) [14-O-p-bromobenzoylaconine] | > 30 mg/kg | 6.42 mg/kg | Soluble in ether, chloroform, benzene, ethanol, methanol, acetone, ethylacetate, pyridine and dimethyl sulfoxide | Insoluble in hexane and water
8 | CCN1CC2(COC)CCC(OC)C34C5CC6(O)C(OC)C(=O)C(C5C6OC(=O)c5cccc(Cl)c5)C(C(OC)C23)C14 (stereo not drawn) [3-deoxy-14-O-m-chlorobenzoyl-16-epi-pyroaconine] | > 20 mg/kg | 10.1 mg/kg | Soluble in ether, chloroform, benzene, ethanol, methanol, ethylacetate, pyridine and dimethyl sulfoxide | Insoluble in hexane and water
9 | CCN1CC2(COC)C(O)CC(OC)C34C5CC6(O)C(OC)C(=O)C(C5C6OC(=O)c5cccc(Cl)c5)C(C(OC)C23)C14 (stereo not drawn) [14-O-m-chlorobenzoyl-16-epi-pyroaconine] | > 20 mg/kg | 11.9 mg/kg | Soluble in ether, chloroform, benzene, ethanol, methanol, ethylacetate, pyridine and dimethyl sulfoxide | Insoluble in hexane and water
10 | CCN1CC2(COC)CCC(OC)C34C5CC6C(OC)C(O)C(C5C6OC(=O)c5cccc(Cl)c5)C(C(OC)C23)C14 (stereo not shown) [3,8,13-trideoxy-14-O-m-chlorobenzoylaconine] |  |  | Soluble in ether, chloroform, benzene, ethanol, methanol, ethylacetate, pyridine and dimethyl sulfoxide | Insoluble in hexane and water
11 | COCC12CN(C)C3C4C(OC)C1C3(C(OC)CC2O)C1CC2(O)C(OC)C(O)C4(O)C1C2OC(=O)c1ccc(Cl)cc1 (stereo not shown) [14-O-p-chlorobenzoylmesaconine] | > 30 mg/kg | 5.85 mg/kg | Soluble in ether, chloroform, benzene, ethanol, methanol, acetone, ethylacetate, pyridine and dimethyl sulfoxide | Insoluble in hexane and water
